Laboratory results reported in US20130224164A1, “Environmental Clostridial Bacteriotherapy and Related Formulations and Methods of Manufacture and Use” (VIROPHARMA INCORPORATED, priority 2010, published 2013).

Test system: healthy subjects ≧60 years of age
Test: Adverse events during oral vancomycin pre-treatment period of the Phase 1 study
Format: in vivo, human
Method: VP20621 (10^4, 10^6, or 10^8 spores) or placebo were administered as a single dose to subjects age 18-45 (Group 1) or ≧60 years of age (Group 2). In Group 3, an oral suspension of 10^8 spores or placebo was administered twice daily for five days to patients≧60 years in age. In Group 4, subjects≧60 years of age received 5 days of oral vancomycin followed by 14 days of once daily VP20621 (10^4, 10^6, or 10^8 spores) or placebo. All subjects were followed through day 28. C. difficile stool cultures were performed at various time points. C. difficile isolates were tested for the production of toxin by enzyme immunoassay.
Purified VP 20621 (spores of a non-toxigenic strain of C. difficile) were produced in a liquid culture medium free of animal-derived components. VP 20621 was administered as an oral liquid suspension. The potency of the drug is based on the viable count of the spores.
Forty-three (43) subjects were pre treated with vancomycin to ensure that a sufficient number of subjects would be available for randomization to achieve the planned target sample size of 36. Twelve (28%) of the 43 subjects had adverse events during the vancomycin pre treatment period (Table 1).

[1] = vancomycin pre-treatment, N = 43

CN[C@H](CC(C)C)C(=O)N[C@H]1C(=O)N[C@@H](CC(N)=O)C(=O)N[C@H]2C(=O)N[C@H]3C(=O)N[C@H](C(=O)N[C@H](C(=O)O)c4cc(O)cc(O)c4-c4cc3ccc4O)[C@H](O)c3ccc(c(Cl)c3)Oc3cc2cc(c3O[C@@H]2O[C@H](CO)[C@@H](O)[C@H](O)[C@H]2O[C@H]2C[C@](C)(N)[C@H](O)[C@H](C)O2)Oc2ccc(cc2Cl)[C@H]1O [Vancomycin, vancomycin]
Subjects with a gastrointestinal adverse effect (Group 4, during pre-treatment with vancomycin): 16%
Subjects with mild diarrhea or loose/watery stools (Group 4, during pre-treatment with vancomycin (3/43)): 7%
Subjects with adverse events (vancomycin pre treatment period, twelve of 43 subjects): 28%
Gastrointestinal AEs: Abdominal distention [1]: 1 (2%)
Gastrointestinal AEs: Abdominal pain [1]: 2 (5%)
Gastrointestinal AEs: Flatulence [1]: 1 (2%)
Gastrointestinal AEs: Gingival bleeding [1]: 1 (2%)
Gastrointestinal AEs: Oral paresthesia [1]: 1 (2%)
Gastrointestinal AEs: Toothache [1]: 1 (2%)
Gastrointestinal AEs: Vomiting [1]: 1 (2%)
Other AEs: Dizziness [1]: 2 (5%)
Other AEs: Dry skin [1]: 1 (2%)
Other AEs: Malaise [1]: 1 (2%)
Other AEs: Pruritis [1]: 1 (2%)
Other AEs: Rash [1]: 1 (2%)
Gastrointestinal AEs: Diarrhea (vancomycin pre-treatment, oral 125 mg QID Days −5 to −1, N = 43): 3 (7%)
